In data set [1] the test system is L1210. Kind of data set: Antitumor activity against mouse L1210 cells […] in ip dosed C3H X DBA2 F1 hybrid mouse on day 0 and dosed at LD10 level once daily on days 1 to 5 assessed as increase in life span relative to control. Format: functional.
Data set [2] is filed under the species Bos taurus. The data set is described as follows: Displacement of ethidium from calf thymus DNA by fluorimetric method.
Data set [3] concerns Mus musculus. Kind of data set: Toxicity in ip dosed C3H X DBA2 F1 hybrid mouse […] with mouse L1210 cells on day 0 and dosed once daily on days 1 to 5 measured after 50 days. The conditions noted are these: in vivo, 1200 h. The format is organism-based.
Data set [4] deals with L1210. Kind of data set: Antitumor activity against mouse L1210 cells […] in ip dosed C3H X DBA2 F1 hybrid mouse on day 0 and dosed once daily on days 1 to 5 assessed as increase in life span relative to control. The format is functional.
The nature of data set [5]: Lipophilic-hydrophilic balance, Rm of the compound by partition chromatography. The format is physicochemical.
Data set [6] in a line: Displacement of ethidium from poly[d(A)]-poly[d(T)] DNA (unknown origin) by fluorimetric method.
A short description of data set [7]: Displacement of ethidium from poly[d(A-T)]-poly[d(A-T)] DNA by fluorimetric method.
The nature of data set [8]: Displacement of ethidium from poly[d(G-C)]-poly[d(G-C)] DNA (unknown origin) by fluorimetric method.

As for `C[n+]1ccc(Nc2ccc(NC(=O)c3ccc(Nc4cc[n+](C)c5ccc(N)cc45)cc3)cc2)cc1.[Br-].[Br-]`, the “log(ILSmax)” value in data set [1] was 2.35. Moreover, the C50 turned out to be 0.66 µM in data set [2], 0.048 µM in data set [6], 0.09 µM in data set [7] and 1.05 µM in data set [8]. Also, the LD10 in data set [3] is 12 mg/kg. Also, in data set [4], the D40 was 1.2 mg/kg. Also, the Rm in data set [5] is listed as 0.07.
Consider `C[n+]1ccc(Nc2ccc(NC(=O)c3ccc(Nc4cc[n+](C)c5ccccc45)cc3)cc2)cc1.[Br-].[Br-]`, for which, in data set [1], the “log(ILSmax)” value came out at 2.23. For the same compound, the C50 is 1.4 µM in data set [2], 0.036 µM in data set [6], 0.16 µM in data set [7] and 3 µM in data set [8]. Also, the LD10 in data set [3] was 13 mg/kg. In data set [4], the D40 came to 2 mg/kg. Moreover, in data set [5], the Rm is 0.29.
Consider `C[n+]1ccc(Nc2ccc(NC(=O)c3ccc(Nc4cc[n+](C)c5ccccc45)cc3N)cc2N)cc1.[I-].[I-]`, for which, in data set [1], the “log(ILSmax)” value amounted to 1.78. Also, the C50 in data set [2] was determined as 1.76 µM; in data set [6], 0.12 µM; in data set [7], 0.79 µM; in data set [8], 3.17 µM. In data set [3], this compound gave an LD10 of 18 mg/kg. The D40 in data set [4] stood at 15 mg/kg. For the same compound, the Rm in data set [5] stood at 0.08.
For the compound `C/C(=N\NC(=N)N)c1ccc(C(=O)Nc2ccc(Nc3cc[n+](C)c4ccc(N)cc34)cc2)cc1.Cc1ccc(S(=O)(=O)O)cc1.Cc1ccc(S(=O)(=O)[O-])cc1`, in data set [1], the “log(ILSmax)” value was determined as 2.37. For the same compound, the C50 was found to be 0.4 µM in data set [2], 0.057 µM in data set [6], 0.12 µM in data set [7] and 0.52 µM in data set [8]. Further, the LD10 in data set [3] turned out to be 40 mg/kg. Moreover, the D40 in data set [4] stood at 2.6 mg/kg. The Rm in data set [5] is reported as -0.1.
As to `C[n+]1cccc(NC(=O)c2ccc(NC(=O)C34CCC(C(=O)Nc5ccc(C(=O)Nc6ccc[n+](C)c6)cc5)(CC3)CC4)cc2)c1.Cc1ccc(S(=O)(=O)[O-])cc1.Cc1ccc(S(=O)(=O)[O-])cc1`, in data set [1], the “log(ILSmax)” value is reported as 2. For the same compound, the C50 in data set [2] is 6.8 µM; in data set [6], 1.6 µM; in data set [7], 5.3 µM; in data set [8], 11 µM. Also, the LD10 in data set [3] is 24 mg/kg. In addition, in data set [4], the D40 was 4.3 mg/kg. In data set [5], this compound came in with a Rm of 0.31.
Turning to `COc1cc(NC(=O)c2ccc(C(=O)Nc3ccc(C(=O)Nc4ccc[n+](C)c4)c(OC)c3)cc2)ccc1C(=O)Nc1ccc[n+](C)c1.Cc1ccc(S(=O)(=O)[O-])cc1.Cc1ccc(S(=O)(=O)[O-])cc1`, the “log(ILSmax)” value in data set [1] is reported as 1.78. Moreover, the C50 in data set [2] was 0.4 µM; in data set [6] it was 0.18 µM; in data set [7] it was 0.3 µM; in data set [8], 0.35 µM. The same compound showed an LD10 in data set [3] of 41 mg/kg. In data set [4], the D40 came to 15 mg/kg. The Rm in data set [5] turned out to be 0.15.
On to `C[n+]1ccc(Nc2ccc(NC(=O)c3ccc(Nc4cc[n+](C)c5ccc(N)cc45)cc3)cc2N)cc1.[I-].[I-]`, for which, in data set [1], the “log(ILSmax)” value was determined as 2.18. For the same compound, the C50 was 0.71 µM in data set [2], 0.067 µM in data set [6], 0.23 µM in data set [7] and 1.3 µM in data set [8]. For the same compound, the LD10 in data set [3] worked out at 3 mg/kg. Also, the D40 in data set [4] came out at 0.7 mg/kg. Further, the Rm in data set [5] is -0.03.
With `C[n+]1ccc(Nc2ccc(NC(=O)c3ccc(Nc4cc[n+](C)c5ccc(N)cc45)cc3N)cc2)cc1.[I-].[I-]`, the “log(ILSmax)” value in data set [1] came to 2.45. The C50 stood at 0.49 µM in data set [2], 0.039 µM in data set [6], 0.1 µM in data set [7] and 1.1 µM in data set [8]. The compound also gave an LD10 in data set [3] of 20 mg/kg. Further, the D40 in data set [4] came out at 2.9 mg/kg. The Rm in data set [5] was 0.01.
In the case of `Cc1cc(C(=O)Nc2ccc[n+](C)c2)ccc1NC(=O)c1ccc(C(=O)Nc2ccc(C(=O)Nc3ccc[n+](C)c3)cc2C)cc1.Cc1ccc(S(=O)(=O)[O-])cc1.Cc1ccc(S(=O)(=O)[O-])cc1`, the “log(ILSmax)” value in data set [1] is recorded as 1.79. In addition, the C50 is 11.7 µM in data set [2], 0.35 µM in data set [6], 6 µM in data set [7] and 16.7 µM in data set [8]. The LD10 in data set [3] was 40 mg/kg. In data set [4], the D40 stood at 27 mg/kg. The same compound had a Rm in data set [5] of 0.12.
`C[n+]1ccc(Nc2ccc(NC(=O)c3ccc(Nc4cc[n+](C)c5c(N)cccc45)cc3)cc2)cc1.[I-].[I-]`: the “log(ILSmax)” value in data set [1] is recorded as 2.48. Besides, the C50 in data set [2] worked out at 0.85 µM; in data set [6], 0.056 µM; in data set [7] it was 0.2 µM; in data set [8], 1.43 µM. In data set [3], the LD10 turned out to be 60 mg/kg. In data set [4], the D40 came to 0.9 mg/kg. The Rm in data set [5] was -0.1.
Consider `C[n+]1ccc(Nc2ccc(NC(=O)c3ccc(C(=O)Nc4ccc(Nc5cc[n+](C)cc5)cc4)cc3)cc2)cc1.Cc1ccc(S(=O)(=O)[O-])cc1.Cc1ccc(S(=O)(=O)[O-])cc1`, for which the “log(ILSmax)” value in data set [1] worked out at 2.33. Besides, the C50 was found to be 1.3 µM in data set [2], 0.043 µM in data set [6], 0.14 µM in data set [7] and 1.8 µM in data set [8]. The compound further displayed an LD10 in data set [3] of 3.1 mg/kg. In data set [4], the D40 is 0.3 mg/kg. Also, in data set [5], the Rm was determined as 0.07.
In the case of `C[n+]1ccc(Nc2ccc(NC(=O)c3ccc(Nc4cc[n+](C)c5c(Cl)cccc45)cc3)cc2)cc1.Cc1ccc(S(=O)(=O)[O-])cc1.Cc1ccc(S(=O)(=O)[O-])cc1`, the “log(ILSmax)” value in data set [1] came to 1.7. Further, the C50 in data set [2] was found to be 1.1 µM; in data set [6] it was 0.038 µM; in data set [7] it was 0.29 µM; in data set [8], 1.4 µM. The same compound showed an LD10 in data set [3] of 55 mg/kg. The D40 in data set [4] was determined as 50 mg/kg. Besides, in data set [5], the Rm came out at 0.51.
On to `CCCC[n+]1cccc(NC(=O)c2ccc(NC(=O)c3ccc(C(=O)Nc4ccc(C(=O)Nc5ccc[n+](CCCC)c5)cc4)cc3)cc2)c1.Cc1ccc(S(=O)(=O)[O-])cc1.Cc1ccc(S(=O)(=O)[O-])cc1`, for which the “log(ILSmax)” value in data set [1] was 1.76. Besides, the C50 was determined as 0.46 µM in data set [2], 0.14 µM in data set [6], 0.41 µM in data set [7] and 0.93 µM in data set [8]. The same compound registered an LD10 in data set [3] of 58 mg/kg. Besides, in data set [4], the D40 was found to be 30 mg/kg. Also, the Rm in data set [5] is recorded as 0.51.
Regarding `C[n+]1ccc(Nc2ccc(NC(=O)c3ccc(Nc4cc[n+](C)c5ccccc45)cc3)cc2N)cc1.[I-].[I-]`, the “log(ILSmax)” value in data set [1] is reported as 1.85. Also, the C50 in data set [2] stood at 2.25 µM; in data set [6] it was 0.052 µM; in data set [7] it was 0.43 µM; in data set [8], 4.76 µM. In data set [3], this compound came in with an LD10 of 8 mg/kg. In data set [4], the D40 is 2.8 mg/kg. This compound returned a Rm in data set [5] of 0.24.
On to `CC[n+]1cccc(NC(=O)c2ccc(NC(=O)c3ccc(C(=O)Nc4ccc(C(=O)Nc5ccc[n+](CC)c5)cc4)cc3)cc2)c1.Cc1ccc(S(=O)(=O)[O-])cc1.Cc1ccc(S(=O)(=O)[O-])cc1`, for which, in data set [1], the “log(ILSmax)” value amounted to 2.24. Besides, the C50 in data set [2] stood at 0.48 µM; in data set [6] it was 0.11 µM; in data set [7], 0.4 µM; in data set [8], 0.9 µM. This compound had an LD10 in data set [3] of 33 mg/kg. Also, the D40 in data set [4] was 9.8 mg/kg. Moreover, the Rm in data set [5] is recorded as -0.32.

The values are drawn from ChEMBL document CHEMBL3228010, “Potential antitumor agents. 29. Quantitative structure-activity relationships for the antileukemic bisquaternary ammonium heterocycles” (J Med Chem, 1979).
